Columns and labels:
[1] = test system: Enterococcus sp.; test: In vitro antibacterial evaluation: minimum inhibitory concentration (MIC), broth dilution method; type: cell-based
Outline: (§1)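 Using Muller-Hinton II […] and an inoculum of 5×10^5 CFU/mL, antibiotic dilutions from 64 down to 0.06 μg/mL were tested following NCCLS M7-A2. The MIC is the lowest concentration inhibiting growth, including in methicillin-, penicillin- or vancomycin-resistant clinical isolates.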

[2] = test system: Staphylococcus sp.; test: as above; type: cell-based; conditions: for MIC Staphylococcus haemolyticus (GC 4546): strain GC 4546; for MIC Coagulase Negative Staphylococcus (GC 4547): strain GC 4547; for MIC Coagulase Negative Staphylococcus (GC 4548): strain GC 4548; for MIC Coagulase Negative Staphylococcus (GC 4549): strain GC 4549; for MIC Coagulase Negative Staphylococcus (GC 4551): strain GC 4551; for MIC Coagulase Negative Staphylococcus (GC 6257): strain GC 6257
Outline: as §1

[3] = test system: Escherichia coli; test: as above; type: cell-based
Outline: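 Following NCCLS approved standard M7-A2, compounds are serially diluted from 64 to 0.06 μg/mL in Muller-Hinton II […] and inoculated at 5×10^5 CFU/mL; the MIC is the minimum concentration at which growth is inhibited.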

[4] = test system: Streptococcus sp.; test: as above; type: cell-based
Outline: as §1

[5] = test system: Staphylococcus aureus-SMITH (GC 4543); test: Acute lethal infection in mice (ED50); type: in vivo; conditions: female CD-1 mice, intraperitoneal challenge, intravenous dose 30 min. after infection, 7 day survival ratios
Procedure: The therapeutic effects of glycopeptide antibiotics of Formula I are determined against acute lethal infections with S. aureus (strain Smith), a penicillin resistant strain of S. pneumoniae (strain GC 1894), and a vancomycin resistant strain of E. fecalis (strain GC 6189 and GC 2246). Female mice, CD-1 (Charles River Laboratories), 20 +1-2 gm, are challenged by intraperitoneal injection of sufficient bacteria (suspended in Trypticase Soy Broth or hog gastric mucin) to kill non-treated controls within 24-48 hr. Antibacterial agents, contained in 0.2 mL of saline or 5% dextrose solution, are administered intravenously 30 min. after infection. Five mice are treated at each dose level. The 7 day survival ratios from 3 separate tests are pooled for calculation of median effective dose (ED50).

[6] = broth dilution, 18 hours at 35° C.

Substance: Tri-N-[(phenylmethoxy)carbonyl]-cyclo[glycyl-β-methylphenylalanyltyrosyl-3-(2-iminoimidazolidin-4-yl)seryl-3-(3-hexopyranosyl-2-iminoimidazolidin-4-yl)serylseryl] [Example 89]
- MIC Enterococcus avium (GC 4558) ([1]; Enterococcus avium (GC 4558), broth dilution, 18 hours at 35° C.): 32 µg/mL
- MIC Enterococcus faecalis (ATCC 29212) ([1]; Enterococcus faecalis (ATCC 29212), broth dilution, 18 hours at 35° C.): 64 µg/mL
- MIC Enterococcus faecalis (GC 2242) ([1]; Enterococcus faecalis (GC 2242), broth dilution, 18 hours at 35° C.): 64 µg/mL
- MIC Enterococcus faecalis (GC 2691) ([1]; Enterococcus faecalis (GC 2691), broth dilution, 18 hours at 35° C.): 64 µg/mL
- MIC Enterococcus faecalis (GC 3059) ([1]; Enterococcus faecalis (GC 3059), broth dilution, 18 hours at 35° C.): 64 µg/mL
- MIC Enterococcus faecalis (GC 4552) ([1]; Enterococcus faecalis (GC 4552), broth dilution, 18 hours at 35° C.): 64 µg/mL
- MIC Enterococcus faecalis (GC 4553) ([1]; Enterococcus faecalis (GC 4553), broth dilution, 18 hours at 35° C.): 64 µg/mL
- MIC Enterococcus faecalis (GC 4554) ([1]; Enterococcus faecalis (GC 4554), broth dilution, 18 hours at 35° C.): 64 µg/mL
- MIC Enterococcus faecalis (GC 6189) ([1]; Enterococcus faecalis (GC 6189), broth dilution, 18 hours at 35° C.): 64 µg/mL
- MIC Enterococcus faecium (GC 2243) ([1]; Enterococcus faecium (GC 2243), broth dilution, 18 hours at 35° C.): 64 µg/mL
- MIC Enterococcus faecium (GC 4556) ([1]; Enterococcus faecium (GC 4556), broth dilution, 18 hours at 35° C.): 64 µg/mL
- MIC Enterococcus faecium (GC 4557) ([1]; Enterococcus faecium (GC 4557), broth dilution, 18 hours at 35° C.): 32 µg/mL
- MIC Enterococcus faecalis (ATCC 29212) ([1]; strain ATCC 29212): 64 µg/mL
- MIC Enterococcus faecalis (GC 2242) ([1]; strain GC 2242): 64 µg/mL
- MIC Enterococcus faecium (GC 2243) ([1]; strain GC 2243): 64 µg/mL
- MIC Enterococcus faecalis (GC 2691) ([1]; strain GC 2691): 64 µg/mL
- MIC Enterococcus faecalis (GC 3059) ([1]; strain GC 3059): 64 µg/mL
- MIC Enterococcus faecalis (GC 4552) ([1]; strain GC 4552): 64 µg/mL
- MIC Enterococcus faecalis (GC 4553) ([1]; strain GC 4553): 64 µg/mL
- MIC Enterococcus faecalis (GC 4554) ([1]; strain GC 4554): 64 µg/mL
- MIC Enterococcus faecium (GC 4556) ([1]; strain GC 4556): 64 µg/mL
- MIC Enterococcus faecium (GC 4557) ([1]; strain GC 4557): 32 µg/mL
- MIC Enterococcus avium (GC 4558) ([1]; strain GC 4558): 32 µg/mL
- MIC Enterococcus faecalis (GC 6189) ([1]; strain GC 6189): 64 µg/mL
- MIC Staphylococcus aureus (ATCC 29213) [2, 6]: 64 µg/mL
- MIC Staphylococcus aureus (GC 1131) [2, 6]: 64 µg/mL
- MIC Staphylococcus aureus (GC 3051) [2, 6]: 64 µg/mL
- MIC Staphylococcus aureus (GC 3053) [2, 6]: 64 µg/mL
- MIC Staphylococcus aureus (GC 4541) [2, 6]: 64 µg/mL
- MIC Staphylococcus aureus (GC 4542) [2, 6]: 64 µg/mL
- MIC Staphylococcus aureus (GC 4544) [2, 6]: 64 µg/mL
- MIC Staphylococcus aureus (GC 4545) [2, 6]: 64 µg/mL
- MIC Staphylococcus aureus (ATCC 29213) ([2]; strain ATCC 29213, broth dilution, 18 hours at 35° C.): 64 µg/mL
- MIC Staphylococcus aureus (GC 1131) ([2]; strain GC 1131, broth dilution, 18 hours at 35° C.): 64 µg/mL
- MIC Staphylococcus aureus (GC 3051) ([2]; strain GC 3051, broth dilution, 18 hours at 35° C.): 64 µg/mL
- MIC Staphylococcus aureus (GC 3053) ([2]; strain GC 3053, broth dilution, 18 hours at 35° C.): 64 µg/mL
- MIC Staphylococcus aureus (GC 4541) ([2]; strain GC 4541, broth dilution, 18 hours at 35° C.): 64 µg/mL
- MIC Staphylococcus aureus (GC 4542) ([2]; strain GC 4542, broth dilution, 18 hours at 35° C.): 64 µg/mL
- MIC Staphylococcus aureus-SMITH (GC 4543) ([2]; strain GC 4543, 18 hours at 35° C.): 64 µg/mL
- MIC Staphylococcus aureus (GC 4544) ([2]; strain GC 4544, broth dilution, 18 hours at 35° C.): 64 µg/mL
- MIC Staphylococcus aureus (GC 4545) ([2]; strain GC 4545, broth dilution, 18 hours at 35° C.): 64 µg/mL
- MIC Staphylococcus haemolyticus (GC 4546) [2]: 32 µg/mL
- MIC Staphylococcus haemolyticus (GC 4546) [2, 6]: 32 µg/mL
- MIC Coagulase Negative Staphylococcus (GC 4547) [2]: 32 µg/mL
- MIC Coagulase Negative Staphylococcus (GC 4547) [2, 6]: 32 µg/mL
- MIC Coagulase Negative Staphylococcus (GC 4548) [2]: 64 µg/mL
- MIC Coagulase Negative Staphylococcus (GC 4548) [2, 6]: 64 µg/mL
- MIC Coagulase Negative Staphylococcus (GC 4549) [2]: 64 µg/mL
- MIC Coagulase Negative Staphylococcus (GC 4549) [2, 6]: 64 µg/mL
- MIC Coagulase Negative Staphylococcus (GC 4551) [2]: 64 µg/mL
- MIC Coagulase Negative Staphylococcus (GC 4551) [2, 6]: 64 µg/mL
- MIC Coagulase Negative Staphylococcus (GC 6257) [2]: 32 µg/mL
- MIC Coagulase Negative Staphylococcus (GC 6257) [2, 6]: 32 µg/mL
- MIC Staphylococcus aureus-SMITH (GC 4543) ([2]; strain SMITH GC 4543, broth dilution, 18 hours at 35° C.): 64 µg/mL
- MIC Escherichia coli (ATCC 25922) ([3]; strain ATCC 25922): >64 µg/mL
- MIC Escherichia coli (GC 4559) ([3]; strain GC 4559): >64 µg/mL
- MIC Escherichia coli (GC 4560) ([3]; strain GC 4560): 32 µg/mL
- MIC Streptococcus agalactiae (GC 4564) ([4]; Streptococcus agalactiae (GC 4564), broth dilution, 18 hours at 35° C.): 32 µg/mL
- MIC Streptococcus pneumoniae (ATCC 6301) ([4]; Streptococcus pneumoniae (ATCC 6301), broth dilution, 18 hours at 35° C.): 16 µg/mL
- MIC Streptococcus pneumoniae (GC 1894) ([4]; Streptococcus pneumoniae (GC 1894), broth dilution, 18 hours at 35° C.): 4 µg/mL
- MIC Streptococcus pneumoniae (GC 4565) ([4]; Streptococcus pneumoniae (GC 4565), broth dilution, 18 hours at 35° C.): 8 µg/mL
- MIC Streptococcus pyogenes (GC 4563) ([4]; Streptococcus pyogenes (GC 4563), broth dilution, 18 hours at 35° C.): 32 µg/mL
- MIC Streptococcus pneumoniae (ATCC 6301) ([4]; strain ATCC 6301): 16 µg/mL
- MIC Streptococcus pneumoniae (GC 1894) ([4]; strain GC 1894): 4 µg/mL
- MIC Streptococcus pyogenes (GC 4563) ([4]; strain GC 4563): 32 µg/mL
- MIC Streptococcus agalactiae (GC 4564) ([4]; strain GC 4564): 32 µg/mL
- MIC Streptococcus pneumoniae (GC 4565) ([4]; strain GC 4565): 8 µg/mL
- median effective dose (ED50), Staphylococcus aureus-SMITH (GC 4543) [5]: >8

From US8247211B2, “Glycopeptide antibiotics” (American Cyanamid Company, priority 2001, dated 2012)
